According to article PMC3159909, “Alliinase from Ensifer adhaerens and Its Use for Generation of Fungicidal Activity” (AMB Express, 2011):
Read-outs that look alike come from different tables or passages of the source.

Tested on: T1, P-19486 alliinase
T1 construct: homodimer 96 kDa, subunit 48 kDa; PLP-dependent
Assay: colorimetric pyruvic acid production
Assay type: biochemical, Ensifer adhaerens
Details: 20 uM PLP, 50 mM sodium phosphate pH 7.0, 30°C, read-out: Kinetic constants / Km
Excerpt: colorimetric pyruvic acid production on P-19486 alliinase

C=CC[S+]([O-])C[C@H](N)C(=O)O (mixture of isomers) [(±)-Alliin]
Km (diastereomer mixture): 2.3 mM

C=CC[S@+]([O-])C[C@H](N)C(=O)O [(+)-Alliin]
Km: 5.7 mM

C=CCSC[C@H](N)C(=O)O [S-Allyl-L-cysteine]
Km: 10.6 mM
